Data from PMC6273353, “Design, Synthesis and Evaluation of Novel Tacrine-Ferulic Acid Hybrids as Multifunctional Drug Candidates against Alzheimer’s Disease” (Molecules, 2016).

What was measured:
BuChE = molecular target: T1, BuChE (Homo sapiens, UniProt P06276); assay: biochemical; conditions: mean ± SD of three independent experiments
T1 construct: purchased Sigma-Aldrich
Procedure: (§1) Five different concentrations (10^−4–10^−9 M) of each compound were tested for the inhibitory activity for AChE and BuChE. 10 μL 0.86 U/mL AChE or BuChE, 60 μL 0.1 M phosphate buffer (pH 8.0), and 10 μL test compounds were incubated together at 37 °C for 10 min. An amount of 20 μL 10 mmol/L […] or butylthicoline iodide was added and the solution was incubated at 37 °C for 10 min again. Then 20 μL 5 mmol/L 5,5′-dithiobis-(2-nitrobenzoic acid) (DTNB) and 30 μL 1% sodium dodecyl sulfatesodium salt (SDS) were added. […] Each concentration was analyzed three times, and the IC50 value was calculated from the concentration-inhibition response curve on logarithmic scale.

AChE [1] = molecular target: T2, AChE (Homo sapiens, UniProt P22303); assay: biochemical; conditions: for Selectivity Index: Selectivity index = IC50 (BuChE)/IC50 (AChE); for IC50: mean ± SD of three independent experiments
T2 construct: purchased Sigma-Aldrich
T2 sequence (P22303 32-614): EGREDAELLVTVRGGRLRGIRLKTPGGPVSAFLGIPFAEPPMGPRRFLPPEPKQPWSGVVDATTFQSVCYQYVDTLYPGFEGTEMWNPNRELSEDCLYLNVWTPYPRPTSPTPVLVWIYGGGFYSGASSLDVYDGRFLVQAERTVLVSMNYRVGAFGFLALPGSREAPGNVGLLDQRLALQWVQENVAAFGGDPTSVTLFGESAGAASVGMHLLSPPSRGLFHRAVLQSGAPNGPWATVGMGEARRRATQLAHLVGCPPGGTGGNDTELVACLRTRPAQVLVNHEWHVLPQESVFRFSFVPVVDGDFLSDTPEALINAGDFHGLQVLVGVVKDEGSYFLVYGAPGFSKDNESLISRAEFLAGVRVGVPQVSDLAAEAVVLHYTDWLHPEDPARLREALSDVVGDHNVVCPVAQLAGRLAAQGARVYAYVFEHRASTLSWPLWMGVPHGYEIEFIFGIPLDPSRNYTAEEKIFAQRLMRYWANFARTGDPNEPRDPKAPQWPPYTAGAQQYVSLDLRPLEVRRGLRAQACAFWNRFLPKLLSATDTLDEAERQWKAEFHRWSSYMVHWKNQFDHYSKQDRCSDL
Procedure: as §1

Aβ (1–42) = molecular target: T3, Aβ (1–42) (Homo sapiens, UniProt P05067); assay: Inhibition of self-induced Aβ (1–42) aggregation, thioflavin T-based fluorometric assay; format: biochemical; conditions: 20 μM compounds, 20 μM Aβ (1–42), 37 °C, 48 h; mean ± SD
T3 construct: An amount of 250 μg Aβ (1–42) was dissolved; purchased Sigma-Aldrich
T3 sequence (P05067 672-713): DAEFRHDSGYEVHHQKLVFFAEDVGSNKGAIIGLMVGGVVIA
Procedure: TFAs 8a–e were tested for their ability to inhibit self-induced Aβ (1–42) aggregation by a thioflavin T-based fluorometric assay, and curcumin and ferulic acid were used as reference compounds.
An amount of 250 μg Aβ (1–42) was dissolved in 1 mL hexafluoroisopropanol (HFIP) and lyophilizated, then dissolved in 25 μL DMSO and 150 μL 50 mM phosphate buffer saline (PBS). For the self-induced assay, 10 μL of Aβ (1–42) was incubated with 10 μL test compounds, both at a final concentration of 20 μM, at 37 °C for 48 h. Then, 40 μL PBS and 100 μL 5 μM thioflavin T (ThT) in 50 mM glycine-NaOH buffer (pH 8.5) was added. […] The percent inhibition of the self-induced aggregation due to the presence of the test compound was calculated by the following expression: 100 − (IFi/IF0 × 100) where IFi and IF0 are the fluorescence intensities with and without test compound, respectively, minus the fluorescence intensities due to the respective blanks.

AChE [2] = molecular target: T2, AChE; assay: Kinetic analysis of AChE inhibition (Lineweaver-Burk); format: biochemical; conditions: Lineweaver-Burk reciprocal plots, six substrate concentrations
Procedure: Kinetic characterization of AChE was performed as the reported method using six different substrate concentrations (50, 90, 150, 266, 452, and 904 μM). An amount of 60 µL PBS, 20 µL DTNB, 10 µL AChE, and 10 µL inhibitor were mixed together and pre-incubated for 10 min, followed by the addition of 20 μL different substrate and then incubated for 15 min. After that, 30 μL 1% SDS was added. Kinetic characterization of the hydrolysis of acetylthiocholine chloride catalyzed by AChE was done spectrometrically at 415 nm. A parallel control with no inhibitor in the mixture, allowed adjusting activities to be measured.

[3] = Cu2+-chelating properties assay by UV spectrometry; format: physicochemical; conditions: 8d 40 μM with 10, 20, 40 μM CuCl2 in MeOH, UV 220–400 nm
Procedure: In recent years, there is mounting evidence to support the theory that endogenous copper can be involved as factors or cofactors in the etiopathogenesis of AD, and modulating Cu^2+ in the brain should be to the benefit of AD treatment. The chelating effect of 8d for Cu^2+ was studied by ultra violet (UV) spectrometry with wavelength ranging from 220 to 400 nm.
The complexing studies were determined using a UV spectrophotometer (Beckman Coulter Inc., Brea, CA, USA). Compound 8d (40 µM) in methanol was mixed with 10, 20, 40 µM CuCl2, and then incubated at room temperature for 5 min. The absorption spectra were recorded from 220 nm to 400 nm after incubation.

Neuro-2A cells = assay: Protective effect against Aβ-induced neurotoxicity, MTT viability assay; format: cell-based; conditions: 8d 5 or 10 μM with 10 μM Aβ (1–42), 48 h, p < 0.05
Procedure: To investigate the protective effect of 8d against Aβ-induced cytotoxicity, 8d (0, 5 or 10 μM) and 10 μM Aβ (1–42) was directly added into the medium of the Neuro-2A cells. The cells were incubated for 48 h.
Neuro-2A cell were grown in dulbecco’s modified eagle medium (DMEM) plus 1% glutamine and 10% heat-inactivated fetal bovine serum. The assays were performed in 96-well microtiter plates. Cells were treated with or without lyophilizated Aβ (1–42) (10 μM), or different concentrations of 8d (5, 10 μM) combination and incubated for 48 h. Then, 10 µL of MTT (5 mg/mL) was added to each well and incubated for four hours, and then the liquid in the wells was removed. DMSO (150 µL) was added to each well. The absorbance was recorded using a microplate reader at a wavelength of 570 nm.
Neuroprotective effect of 8d were evaluated by cells treated with 8d at the concentration of 0, 5 or 10 μM in the presence of 10 μM Aβ for 48 h; Vehicle group was treated with solvent. The cell viability was assessed using the 3-[4,5-dimethylthylthiazol-2-yl]-2,5 diphenyltetrazoliumbromide (MTT) assay. Data are from three independent experiments and are expressed as the mean ± SD values. ** p < 0.01 compared to vehicle. * p < 0.05, represents significant differences from the control group.

T1 sequence (P06276 29-602): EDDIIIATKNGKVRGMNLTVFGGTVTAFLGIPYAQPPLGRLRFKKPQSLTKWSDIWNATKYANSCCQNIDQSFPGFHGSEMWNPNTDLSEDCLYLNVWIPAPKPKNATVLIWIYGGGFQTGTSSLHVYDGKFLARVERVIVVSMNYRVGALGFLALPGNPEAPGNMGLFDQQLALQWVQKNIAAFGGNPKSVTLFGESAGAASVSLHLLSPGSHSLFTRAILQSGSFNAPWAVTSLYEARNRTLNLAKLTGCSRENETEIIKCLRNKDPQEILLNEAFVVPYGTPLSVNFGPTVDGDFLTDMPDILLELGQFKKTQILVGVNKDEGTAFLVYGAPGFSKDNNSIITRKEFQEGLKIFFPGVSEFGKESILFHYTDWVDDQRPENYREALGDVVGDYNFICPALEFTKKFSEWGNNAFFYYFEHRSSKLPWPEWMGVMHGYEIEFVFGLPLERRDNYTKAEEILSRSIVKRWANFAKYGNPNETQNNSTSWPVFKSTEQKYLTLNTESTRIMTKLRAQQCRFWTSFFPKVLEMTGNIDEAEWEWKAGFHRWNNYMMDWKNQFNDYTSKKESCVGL

Row | SMILES | IC50 (BuChE) | Selectivity Index (AChE [1]) | IC50 (AChE [1]) | inhibition at 20 µM (Aβ (1–42)) | mechanism of AChE inhibition (AChE [2]) | chelating effect for Cu^2+ (in words) [3] | cell viability compared with Aβ-treated alone group (in words) (Neuro-2A cells)
1 | COC(=O)/C=C/c1ccc(OCCN2CCN(CC(=O)Nc3c4c(nc5ccccc35)CCCC4)CC2)c(OC)c1 [Compound 8a, Methyl (E)-3-(3-methoxy-4-(2-(4-(2-oxo-2-((1,2,3,4-tetrahydroacridin-9-yl)amino)ethyl)piperazin-1-yl)ethoxy)phenyl)acrylate] | 203 ± 35.7 nM | 0.660 | 306 ± 12.4 nM | 26.1 ± 4.5% |  |  | 
2 | COC(=O)/C=C/c1ccc(OCCCN2CCN(CC(=O)Nc3c4c(nc5ccccc35)CCCC4)CC2)c(OC)c1 [Compound 8b, Methyl (E)-3-(3-methoxy-4-(3-(4-(2-oxo-2-((1,2,3,4-tetrahydroacridin-9-yl)amino)ethyl)piperazin-1-yl)propoxy)phenyl)acrylate] | 120 ± 12.5 nM | 1.326 | 90.3 ± 7.3 nM | 19.5 ± 2.7% |  |  | 
3 | COC(=O)/C=C/c1ccc(OCCCCN2CCN(CC(=O)Nc3c4c(nc5ccccc35)CCCC4)CC2)c(OC)c1 [Compound 8c, Methyl (E)-3-(3-methoxy-4-(4-(4-(2-oxo-2-((1,2,3,4-tetrahydroacridin-9-yl)amino)ethyl)piperazin-1-yl)butoxy)phenyl)acrylate] | 215 ± 33.7 nM | 4.087 | 52.7 ± 8.2 nM | 18.5 ± 4% |  |  | 
4 | COC(=O)/C=C/c1ccc(OCCCCCN2CCN(CC(=O)Nc3c4c(nc5ccccc35)CCCC4)CC2)c(OC)c1 [Compound 8d, Methyl (E)-3-(3-methoxy-4-((5-(4-(2-oxo-2-((1,2,3,4-tetrahydroacridin-9-yl)amino)ethyl)piperazin-1-yl)pentyl)oxy)phenyl)acrylate] | 107 ± 13.1 nM | 1.733 | 61.7 ± 5.2 nM | 37.2 ± 0.9% | mixed-type inhibitors | complex 8d-Cu^2+ had been produced | significant dose-dependent increase in cell viability
5 | COC(=O)/C=C/c1ccc(OCCCCCCN2CCN(CC(=O)Nc3c4c(nc5ccccc35)CCCC4)CC2)c(OC)c1 [Compound 8e, Methyl (E)-3-(3-methoxy-4-((6-(4-(2-oxo-2-((1,2,3,4-tetrahydroacridin-9-yl)amino)ethyl)piperazin-1-yl)hexyl)oxy)phenyl)acrylate] | 196 ± 3.5 nM | 1.059 | 184 ± 15.2 nM | 35.1 ± 3.2% |  |  | 
6 | COc1cc(/C=C/C(=O)CC(=O)/C=C/c2ccc(O)c(OC)c2)ccc1O [curcumin, reference compound] |  |  |  | 37.3 ± 1.2% |  |  | 
7 | COc1cc(/C=C/C(=O)O)ccc1O [ferulic acid] |  |  |  | 36.5 ± 3.6% |  |  | 
